Measured values: ChEMBL document CHEMBL5291721, “A preclinical secondary pharmacology resource illuminates target-adverse drug reaction associations of marketed drugs” (Nat Commun, 2023)

Key:
[1] = biological target: cGMP-inhibited 3',5'-cyclic phosphodiesterase 3A (Homo sapiens, UniProt Q14432); type: functional
[2] = biological target: T1, Alpha-2A adrenergic receptor (Homo sapiens, UniProt P08913)
T1 sequence (P08913 whole entry): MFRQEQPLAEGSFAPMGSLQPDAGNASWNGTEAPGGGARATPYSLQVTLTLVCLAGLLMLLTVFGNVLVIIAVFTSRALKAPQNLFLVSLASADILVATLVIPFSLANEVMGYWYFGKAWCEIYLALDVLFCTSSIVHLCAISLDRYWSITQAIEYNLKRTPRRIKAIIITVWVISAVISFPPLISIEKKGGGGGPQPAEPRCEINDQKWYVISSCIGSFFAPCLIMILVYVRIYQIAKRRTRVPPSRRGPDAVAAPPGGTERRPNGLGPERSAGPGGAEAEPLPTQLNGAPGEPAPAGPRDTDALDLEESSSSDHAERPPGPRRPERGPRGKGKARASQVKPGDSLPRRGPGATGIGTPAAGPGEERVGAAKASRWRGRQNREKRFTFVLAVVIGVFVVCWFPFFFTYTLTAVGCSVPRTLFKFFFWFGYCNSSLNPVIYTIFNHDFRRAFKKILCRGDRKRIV

[3] = biological target: 3',5'-cyclic-AMP phosphodiesterase 4A (Homo sapiens, UniProt P27815); type: functional
[4] = biological target: T2, 5-hydroxytryptamine receptor 1A (Homo sapiens, UniProt P08908)
T2 sequence (P08908 whole entry): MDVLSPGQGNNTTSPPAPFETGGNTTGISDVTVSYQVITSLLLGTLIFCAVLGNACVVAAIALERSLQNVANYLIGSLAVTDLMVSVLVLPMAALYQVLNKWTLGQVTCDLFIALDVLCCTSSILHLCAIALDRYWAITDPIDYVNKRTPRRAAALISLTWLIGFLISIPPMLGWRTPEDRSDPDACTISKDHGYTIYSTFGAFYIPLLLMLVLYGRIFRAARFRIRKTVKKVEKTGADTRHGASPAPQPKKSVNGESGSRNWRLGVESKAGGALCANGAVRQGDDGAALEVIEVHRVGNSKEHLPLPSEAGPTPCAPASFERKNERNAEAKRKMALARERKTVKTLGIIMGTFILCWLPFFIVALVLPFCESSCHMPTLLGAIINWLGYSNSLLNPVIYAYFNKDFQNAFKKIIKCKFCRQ

[5] = biological target: T3, Amine oxidase [flavin-containing] A (Homo sapiens, UniProt P21397); type: functional
T3 sequence (P21397 whole entry): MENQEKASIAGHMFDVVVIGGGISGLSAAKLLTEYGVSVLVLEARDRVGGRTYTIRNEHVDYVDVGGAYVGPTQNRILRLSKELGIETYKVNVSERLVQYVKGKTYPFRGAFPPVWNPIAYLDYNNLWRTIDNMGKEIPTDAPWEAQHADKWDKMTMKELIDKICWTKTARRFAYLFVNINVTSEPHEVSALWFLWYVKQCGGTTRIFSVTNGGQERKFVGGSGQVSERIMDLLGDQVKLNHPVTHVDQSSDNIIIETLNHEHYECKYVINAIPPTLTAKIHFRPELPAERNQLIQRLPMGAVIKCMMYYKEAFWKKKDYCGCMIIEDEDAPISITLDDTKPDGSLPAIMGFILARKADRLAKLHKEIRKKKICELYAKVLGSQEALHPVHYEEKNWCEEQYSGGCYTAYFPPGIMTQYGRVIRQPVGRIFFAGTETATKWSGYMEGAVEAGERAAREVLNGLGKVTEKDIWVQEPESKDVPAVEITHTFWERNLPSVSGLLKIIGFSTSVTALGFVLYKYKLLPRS

[6] = biological target: T4, Thromboxane A2 receptor (Homo sapiens, UniProt P21731); type: functional, cell-based
T4 sequence (P21731 whole entry): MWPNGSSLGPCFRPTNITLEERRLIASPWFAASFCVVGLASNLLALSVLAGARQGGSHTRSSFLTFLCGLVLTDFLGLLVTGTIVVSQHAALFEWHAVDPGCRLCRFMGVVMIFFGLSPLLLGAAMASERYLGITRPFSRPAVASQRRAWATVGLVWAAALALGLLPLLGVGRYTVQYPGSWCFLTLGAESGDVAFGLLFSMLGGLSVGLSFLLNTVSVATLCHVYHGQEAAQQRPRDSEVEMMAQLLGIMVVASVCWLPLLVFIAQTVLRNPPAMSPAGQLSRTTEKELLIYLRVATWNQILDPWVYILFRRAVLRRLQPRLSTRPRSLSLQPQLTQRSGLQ

[7] = biological target: Histamine H3 receptor (Homo sapiens, UniProt Q9Y5N1)
[8] = biological target: Prothrombin (Homo sapiens, UniProt P00734); type: functional
[9] = biological target: T4, Thromboxane A2 receptor; type: functional, cell-based; remark: listed apart in the source
[10] = biological target: Voltage-gated inwardly rectifying potassium channel KCNH2 (Homo sapiens, UniProt Q12809); type: functional
[11] = biological target: Acetylcholinesterase (Homo sapiens, UniProt P22303); type: functional
[12] = biological target: T5, Muscarinic acetylcholine receptor M2 (Homo sapiens, UniProt P08172)
T5 sequence (P08172 whole entry): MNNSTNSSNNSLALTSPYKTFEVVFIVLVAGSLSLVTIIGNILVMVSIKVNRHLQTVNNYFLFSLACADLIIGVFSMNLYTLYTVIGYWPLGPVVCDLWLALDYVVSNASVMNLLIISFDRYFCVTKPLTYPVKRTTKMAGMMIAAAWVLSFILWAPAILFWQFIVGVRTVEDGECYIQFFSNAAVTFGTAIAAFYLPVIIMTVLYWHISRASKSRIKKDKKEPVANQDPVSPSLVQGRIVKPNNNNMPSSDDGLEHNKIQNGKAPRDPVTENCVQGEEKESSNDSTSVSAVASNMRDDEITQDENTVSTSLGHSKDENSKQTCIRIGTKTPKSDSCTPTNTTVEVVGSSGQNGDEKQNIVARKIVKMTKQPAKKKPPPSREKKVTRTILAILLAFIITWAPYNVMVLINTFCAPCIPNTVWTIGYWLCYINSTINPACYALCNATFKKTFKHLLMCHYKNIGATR

[13] = biological target: 5-hydroxytryptamine receptor 2B (Homo sapiens, UniProt P41595); type: functional, cell-based
[14] = biological target: Sodium-dependent dopamine transporter (Homo sapiens, UniProt Q01959)
Also: assay procedure not described here.

cGMP-inhibited 3',5'-cyclic phosphodiesterase 3A, sequence (Q14432 whole entry): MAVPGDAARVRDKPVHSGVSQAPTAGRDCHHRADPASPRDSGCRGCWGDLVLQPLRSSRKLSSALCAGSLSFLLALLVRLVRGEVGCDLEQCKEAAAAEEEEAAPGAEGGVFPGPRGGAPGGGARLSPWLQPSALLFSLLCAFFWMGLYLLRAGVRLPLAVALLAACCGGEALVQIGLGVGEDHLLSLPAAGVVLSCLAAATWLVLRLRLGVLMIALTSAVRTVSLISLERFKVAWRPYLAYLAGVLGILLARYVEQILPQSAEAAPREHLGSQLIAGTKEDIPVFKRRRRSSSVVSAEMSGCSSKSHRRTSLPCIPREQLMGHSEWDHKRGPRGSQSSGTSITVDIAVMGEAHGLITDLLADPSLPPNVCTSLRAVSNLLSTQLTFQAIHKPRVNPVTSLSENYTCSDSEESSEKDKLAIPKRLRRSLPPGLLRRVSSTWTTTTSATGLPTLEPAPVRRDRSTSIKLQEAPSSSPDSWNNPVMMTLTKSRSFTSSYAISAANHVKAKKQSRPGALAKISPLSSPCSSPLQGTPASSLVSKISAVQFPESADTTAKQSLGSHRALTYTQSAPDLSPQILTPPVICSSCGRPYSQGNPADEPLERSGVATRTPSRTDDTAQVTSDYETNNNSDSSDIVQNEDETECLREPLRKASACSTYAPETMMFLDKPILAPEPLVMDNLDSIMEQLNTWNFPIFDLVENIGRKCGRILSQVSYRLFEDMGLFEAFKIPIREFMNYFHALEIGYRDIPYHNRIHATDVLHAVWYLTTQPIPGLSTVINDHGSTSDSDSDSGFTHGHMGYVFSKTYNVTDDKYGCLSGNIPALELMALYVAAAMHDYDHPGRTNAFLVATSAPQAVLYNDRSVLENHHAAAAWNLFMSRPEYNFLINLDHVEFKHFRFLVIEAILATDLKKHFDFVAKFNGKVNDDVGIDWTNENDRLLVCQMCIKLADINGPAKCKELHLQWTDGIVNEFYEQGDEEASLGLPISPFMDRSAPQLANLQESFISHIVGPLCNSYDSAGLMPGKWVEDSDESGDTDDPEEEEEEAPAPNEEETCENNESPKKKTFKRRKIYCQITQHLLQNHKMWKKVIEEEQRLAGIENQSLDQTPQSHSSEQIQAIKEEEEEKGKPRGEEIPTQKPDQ
Histamine H3 receptor, sequence (Q9Y5N1 whole entry): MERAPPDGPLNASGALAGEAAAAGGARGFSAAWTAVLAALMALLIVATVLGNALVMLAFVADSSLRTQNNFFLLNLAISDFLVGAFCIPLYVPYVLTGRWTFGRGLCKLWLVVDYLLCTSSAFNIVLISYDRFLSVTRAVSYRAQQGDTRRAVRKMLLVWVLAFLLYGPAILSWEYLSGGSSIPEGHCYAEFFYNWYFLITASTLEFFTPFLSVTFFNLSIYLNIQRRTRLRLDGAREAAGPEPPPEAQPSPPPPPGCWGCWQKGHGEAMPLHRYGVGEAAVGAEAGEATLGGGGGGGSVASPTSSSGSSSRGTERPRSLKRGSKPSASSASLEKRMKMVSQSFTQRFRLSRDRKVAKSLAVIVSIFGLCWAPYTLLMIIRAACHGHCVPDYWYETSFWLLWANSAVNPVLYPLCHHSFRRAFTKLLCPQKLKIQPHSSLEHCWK
Voltage-gated inwardly rectifying potassium channel KCNH2, sequence (Q12809 whole entry): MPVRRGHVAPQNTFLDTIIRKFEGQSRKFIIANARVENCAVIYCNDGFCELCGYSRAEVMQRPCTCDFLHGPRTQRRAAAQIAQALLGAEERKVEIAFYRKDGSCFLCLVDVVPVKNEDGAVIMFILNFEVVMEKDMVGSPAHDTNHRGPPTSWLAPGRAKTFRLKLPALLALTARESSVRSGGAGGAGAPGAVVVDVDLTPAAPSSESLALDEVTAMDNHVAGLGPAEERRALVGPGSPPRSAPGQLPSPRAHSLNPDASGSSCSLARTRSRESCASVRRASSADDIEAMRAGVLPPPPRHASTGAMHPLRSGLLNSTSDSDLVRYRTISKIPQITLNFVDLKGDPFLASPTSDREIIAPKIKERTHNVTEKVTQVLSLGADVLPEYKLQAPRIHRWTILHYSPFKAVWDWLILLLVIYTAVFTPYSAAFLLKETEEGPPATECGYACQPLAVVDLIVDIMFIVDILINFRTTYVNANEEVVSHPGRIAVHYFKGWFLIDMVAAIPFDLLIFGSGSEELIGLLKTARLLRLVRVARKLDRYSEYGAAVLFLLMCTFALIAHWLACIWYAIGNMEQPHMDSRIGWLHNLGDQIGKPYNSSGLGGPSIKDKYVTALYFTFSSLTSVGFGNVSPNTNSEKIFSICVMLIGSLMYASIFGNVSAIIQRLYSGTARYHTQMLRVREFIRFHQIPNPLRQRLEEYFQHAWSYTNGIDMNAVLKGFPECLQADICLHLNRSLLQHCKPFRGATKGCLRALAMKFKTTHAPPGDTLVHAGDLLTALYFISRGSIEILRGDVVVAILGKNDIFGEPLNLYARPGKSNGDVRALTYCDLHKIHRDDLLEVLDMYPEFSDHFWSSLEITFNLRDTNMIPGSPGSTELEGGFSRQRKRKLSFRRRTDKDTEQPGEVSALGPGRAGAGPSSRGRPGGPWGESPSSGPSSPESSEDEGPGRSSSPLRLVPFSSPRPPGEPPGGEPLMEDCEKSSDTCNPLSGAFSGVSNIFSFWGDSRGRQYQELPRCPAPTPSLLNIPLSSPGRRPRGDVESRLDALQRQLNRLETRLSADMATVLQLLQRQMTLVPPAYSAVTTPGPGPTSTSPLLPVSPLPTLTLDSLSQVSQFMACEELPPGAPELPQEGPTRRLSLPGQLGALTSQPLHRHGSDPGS
Sodium-dependent dopamine transporter, sequence (Q01959 whole entry): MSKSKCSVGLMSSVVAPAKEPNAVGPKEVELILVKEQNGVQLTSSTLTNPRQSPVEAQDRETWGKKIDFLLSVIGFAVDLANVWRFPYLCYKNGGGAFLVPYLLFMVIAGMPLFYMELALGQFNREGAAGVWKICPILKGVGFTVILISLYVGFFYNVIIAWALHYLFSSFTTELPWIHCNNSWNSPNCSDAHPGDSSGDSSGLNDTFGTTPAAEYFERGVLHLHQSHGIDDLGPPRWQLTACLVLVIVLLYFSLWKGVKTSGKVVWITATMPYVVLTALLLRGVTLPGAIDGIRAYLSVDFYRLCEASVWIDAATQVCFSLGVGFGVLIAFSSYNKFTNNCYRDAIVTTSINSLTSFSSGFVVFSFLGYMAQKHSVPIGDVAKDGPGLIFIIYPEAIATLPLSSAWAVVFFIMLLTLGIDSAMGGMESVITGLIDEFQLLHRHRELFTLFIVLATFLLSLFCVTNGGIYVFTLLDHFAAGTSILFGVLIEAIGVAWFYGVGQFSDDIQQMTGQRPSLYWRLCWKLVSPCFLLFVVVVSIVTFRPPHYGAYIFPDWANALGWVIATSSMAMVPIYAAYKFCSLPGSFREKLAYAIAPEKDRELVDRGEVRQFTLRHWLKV
3',5'-cyclic-AMP phosphodiesterase 4A, sequence (P27815 whole entry): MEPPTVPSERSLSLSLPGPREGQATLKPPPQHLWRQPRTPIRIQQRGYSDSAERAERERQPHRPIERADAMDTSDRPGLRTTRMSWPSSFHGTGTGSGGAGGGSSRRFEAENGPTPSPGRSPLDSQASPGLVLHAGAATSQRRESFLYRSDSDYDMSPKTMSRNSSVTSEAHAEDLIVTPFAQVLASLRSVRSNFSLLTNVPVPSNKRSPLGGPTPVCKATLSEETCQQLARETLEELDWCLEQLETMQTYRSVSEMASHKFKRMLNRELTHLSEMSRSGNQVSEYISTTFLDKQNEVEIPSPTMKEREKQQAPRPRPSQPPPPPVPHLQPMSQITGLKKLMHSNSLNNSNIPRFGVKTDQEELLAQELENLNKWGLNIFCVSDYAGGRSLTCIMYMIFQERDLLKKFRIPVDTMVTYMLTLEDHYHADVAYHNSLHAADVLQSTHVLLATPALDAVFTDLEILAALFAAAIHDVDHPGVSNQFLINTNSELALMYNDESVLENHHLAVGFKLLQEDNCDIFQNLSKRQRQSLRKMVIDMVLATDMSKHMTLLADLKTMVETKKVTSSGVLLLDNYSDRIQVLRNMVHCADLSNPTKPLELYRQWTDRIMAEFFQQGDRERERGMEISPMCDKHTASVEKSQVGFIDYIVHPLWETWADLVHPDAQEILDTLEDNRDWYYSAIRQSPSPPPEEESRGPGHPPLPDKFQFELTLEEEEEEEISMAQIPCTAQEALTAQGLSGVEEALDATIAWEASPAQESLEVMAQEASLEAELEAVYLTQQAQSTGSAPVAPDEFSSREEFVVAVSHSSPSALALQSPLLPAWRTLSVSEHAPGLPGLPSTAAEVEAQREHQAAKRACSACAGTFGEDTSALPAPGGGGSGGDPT
5-hydroxytryptamine receptor 2B, sequence (P41595 whole entry): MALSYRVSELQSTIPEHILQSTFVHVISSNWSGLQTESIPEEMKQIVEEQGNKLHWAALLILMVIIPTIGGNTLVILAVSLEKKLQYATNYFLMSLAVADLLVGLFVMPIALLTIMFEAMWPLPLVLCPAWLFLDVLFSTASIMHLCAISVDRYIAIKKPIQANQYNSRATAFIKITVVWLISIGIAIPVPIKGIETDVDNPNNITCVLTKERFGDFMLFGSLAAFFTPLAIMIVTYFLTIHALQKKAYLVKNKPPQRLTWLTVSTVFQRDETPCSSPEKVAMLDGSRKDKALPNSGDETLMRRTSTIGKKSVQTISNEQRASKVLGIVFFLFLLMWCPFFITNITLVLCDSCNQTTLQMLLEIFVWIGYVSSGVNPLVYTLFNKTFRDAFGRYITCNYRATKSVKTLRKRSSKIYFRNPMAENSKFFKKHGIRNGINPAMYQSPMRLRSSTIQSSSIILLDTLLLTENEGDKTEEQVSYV

O=C(O)COCCN1CCN(C(c2ccccc2)c2ccc(Cl)cc2)CC1 (configuration not stated) [CETIRIZINE]
AC50 [1]: > 30 µM | AC50 [2]: > 30 µM | AC50 [3]: > 30 µM | AC50 [4]: > 30 µM | AC50 [5]: > 30 µM | AC50 [6]: > 30 µM | AC50 [7]: > 30 µM | AC50 [8]: > 30 µM | AC50 [9]: > 30 µM

O=C(O)c1cccnc1Nc1cccc(C(F)(F)F)c1 [NIFLUMIC ACID]
AC50 [10]: > 30 µM

COc1cc(C)c2c(Oc3cccc(C(F)(F)F)c3)c(OC)cc(NC(C)CCCN)c2n1 (configuration not stated) [TAFENOQUINE]
AC50 [1]: > 30 µM | AC50 [11]: > 30 µM | AC50 [2]: > 30 µM | AC50 [12]: > 30 µM | AC50 [3]: > 30 µM | AC50 [4]: 11.3 µM | AC50 [5]: > 30 µM | AC50 [6]: > 3 µM | AC50 [7]: > 30 µM | AC50 [8]: > 30 µM | AC50 [9]: > 3 µM | AC50 [13]: > 30 µM | AC50 [14]: 5.98 µM

Cc1ccccc1-n1c(CF)nc2ccc(N)cc2c1=O [AFLOQUALONE]
AC50 [10]: > 30 µM

OC[C@H]1O[C@@H](n2cnc3c2NC=NC[C@H]3O)C[C@@H]1O [PENTOSTATIN]
AC50 [10]: > 30 µM

O=C(CCC/C=C\C[C@@H]1[C@@H](CC[C@@H](O)CCc2ccccc2)[C@H](O)C[C@@H]1O)OCCCCO[N+](=O)[O-] [LATANOPROSTENE BUNOD]
AC50 [1]: > 30 µM | AC50 [11]: > 30 µM | AC50 [2]: > 30 µM | AC50 [12]: > 30 µM | AC50 [3]: > 30 µM | AC50 [4]: > 30 µM | AC50 [5]: > 30 µM | AC50 [6]: > 10 µM | AC50 [7]: > 30 µM | AC50 [8]: > 30 µM | AC50 [9]: > 30 µM | AC50 [13]: > 30 µM | AC50 [14]: > 30 µM

COc1ccc([C@@H]2CC(=O)c3c(O)cc(O)cc3O2)cc1O [HESPERETIN]
AC50 [10]: > 30 µM

CCCN1CC(NS(=O)(=O)N(CC)CC)CC2Cc3c(O)cccc3CC21 (configuration not stated) [QUINAGOLIDE]
AC50 [10]: 6.5 µM

COC(=O)C1=C(C)NC(C)=C(C(=O)OCCN2CCN(C(c3ccccc3)c3ccccc3)CC2)C1c1cccc([N+](=O)[O-])c1 (configuration not stated) [MANIDIPINE 6300]
AC50 [10]: 0.82 µM

CC(=O)OC[C@H]1O[C@@H](n2ncc(=O)[nH]c2=O)[C@H](OC(C)=O)[C@@H]1OC(C)=O [AZARIBINE]
AC50 [1]: > 30 µM | AC50 [11]: > 30 µM | AC50 [2]: > 30 µM | AC50 [12]: > 30 µM | AC50 [3]: > 30 µM | AC50 [4]: > 30 µM | AC50 [5]: > 30 µM | AC50 [6]: > 30 µM | AC50 [7]: > 30 µM | AC50 [8]: > 30 µM | AC50 [9]: > 30 µM | AC50 [13]: > 30 µM | AC50 [14]: > 30 µM

CC(C)(Oc1ccc(CCNC(=O)c2ccc(Cl)cc2)cc1)C(=O)O [BEZAFIBRATE]
AC50 [10]: > 30 µM

CN[C@@H](C)[C@@H](O)c1ccccc1 [PSEUDOEPHEDRINE]
AC50 [10]: > 30 µM

CCOC(=O)c1c(CSc2ccccc2)n(C)c2cc(Br)c(O)c(CN(C)C)c12 [UMIFENOVIR]
AC50 [10]: 0.61 µM

O=C1c2ccccc2C(=O)C1c1ccccc1 [PHENINDIONE]
AC50 [10]: > 30 µM

C[C@]12CCC(=O)C[C@@H]1CC[C@@H]1[C@@H]2CC[C@]2(C)[C@@H](O)CC[C@@H]12 [STANOLONE]
AC50 [10]: > 30 µM

C[C@]12C=CC(=O)C=C1CC[C@@H]1[C@@H]2CC[C@]2(C)OC(=O)CC[C@@H]12 [TESTOLACTONE]
AC50 [10]: > 30 µM

CC(Cc1cccc(C(F)(F)F)c1)NCCOC(=O)c1ccccc1 (configuration not stated) [BENFLUOREX]
AC50 [10]: 5.6 µM

O=C1c2cccc3c2[C@H](CCC3)CN1[C@@H]1CN2CCC1CC2 [PALONOSETRON]
AC50 [10]: 0.89 µM

Cc1ccccc1N1C(=O)c2cc(S(N)(=O)=O)c(Cl)cc2NC1C (configuration not stated) [METOLAZONE]
AC50 [10]: > 30 µM

C[N+](C)(C)CCOP(=O)([O-])OC[C@H](O)CO
AC50 [10]: > 30 µM

C[C@H](N[C@@H](CCc1ccccc1)C(=O)O)C(=O)N1Cc2ccccc2C[C@H]1C(=O)O
AC50 [1]: > 30 µM | AC50 [11]: > 30 µM | AC50 [2]: > 30 µM | AC50 [12]: > 30 µM | AC50 [3]: > 30 µM | AC50 [4]: > 30 µM | AC50 [5]: > 30 µM | AC50 [6]: > 30 µM | AC50 [7]: > 30 µM | AC50 [8]: > 30 µM | AC50 [9]: > 30 µM | AC50 [13]: > 30 µM | AC50 [14]: > 30 µM

CCOC(=O)c1ccc(N)cc1 [BENZOCAINE]
AC50 [10]: > 30 µM

C/C=C(/C(=C/C)c1ccc(O)cc1)c1ccc(O)cc1 [DIENESTROL]
AC50 [10]: > 30 µM

CN(Cc1cnc2nc(N)nc(N)c2n1)c1ccc(C(=O)N[C@@H](CCC(=O)O)C(=O)O)cc1 [METHOTREXATE]
AC50 [10]: > 30 µM

CCOC(=O)C1=C(C)NC(C)=C(C(=O)OCC)C1c1ccccc1/C=C/C(=O)OC(C)(C)C [LACIDIPINE]
AC50 [10]: 17.8 µM

CCC[C@@H]1C[C@@H](C(=O)N[C@@H]([C@H]2O[C@H](SC)[C@H](O)[C@@H](O)[C@H]2O)[C@@H](C)O)N(C)C1 [LINCOMYCIN]
AC50 [10]: > 30 µM

C[N+]1(C)CCC(=C(c2ccccc2)c2ccccc2)CC1
AC50 [10]: 0.187 µM

CCC1(c2ccc(N)cc2)CCC(=O)NC1=O (configuration not stated) [AMINOGLUTETHIMIDE]
AC50 [10]: > 30 µM

CC1=C(C(=O)OC(C)C)C(c2cccc([N+](=O)[O-])c2)C(C(=O)OC2CN(C(c3ccccc3)c3ccccc3)C2)=C(N)N1 (configuration not stated) [AZELNIDIPINE]
AC50 [10]: > 30 µM

NNCCc1ccccc1 [PHENELZINE]
AC50 [1]: > 30 µM | AC50 [10]: > 30 µM | AC50 [11]: > 30 µM | AC50 [2]: 25.4 µM | AC50 [12]: > 30 µM | AC50 [3]: > 30 µM | AC50 [6]: > 30 µM | AC50 [7]: > 30 µM | AC50 [8]: > 30 µM | AC50 [9]: > 30 µM | AC50 [13]: > 30 µM | AC50 [14]: > 30 µM

CNCCc1ccc(OC(=O)C(C)C)c(OC(=O)C(C)C)c1 [IBOPAMINE]
AC50 [10]: > 30 µM

O=C1OC(OC(=O)c2cccnc2Nc2cccc(C(F)(F)F)c2)c2ccccc21 (configuration not stated) [TALNIFLUMATE]
AC50 [10]: > 30 µM

CN[C@]1(c2ccccc2Cl)CCCCC1=O [ESKETAMINE]
AC50 [10]: > 30 µM

C=C1c2cccc(O)c2C(=O)C2=C(O)[C@]3(O)C(=O)C(C(N)=O)=C(O)[C@@H](N(C)C)[C@@H]3[C@@H](O)[C@H]12 [METHACYCLINE]
AC50 [10]: > 30 µM

CN(C)Cc1nnc2n1-c1ccc(Cl)cc1C(c1ccccc1)=NC2 [ADINAZOLAM]
AC50 [10]: > 30 µM
